Values quoted from earlier work in patent EP3156049A1, “PHARMACEUTICAL COMPOSITION OF PRASUGREL” (Alembic Pharmaceuticals Limited, priority 2015, dated 2017).
Like-named read-outs stand apart in the source and are kept apart here.

In the case of `CC(=O)Oc1cc2c(s1)CCN(C(C(=O)C1CC1)c1ccccc1F)C2.Cl` (racemic) [Prasugrel hydrochloride, 5-[(1RS)-2-cyclopropyl-1-(2-fluorophenyl)-2-oxoethyl]-4,5,6,7-tetrahydrothieno [3,2-c] pyridin-2-yl acetate hydrochloride], the Solubility (pH 2) is given as “soluble”, the Solubility (pH 3 to 4) is given as “slightly soluble” and the Solubility (pH 6 to 7.5) is given as “practically insoluble”.
